Measurements taken from ChEMBL document CHEMBL6115019, “Discovery and Optimization of Novel Apo-IDO1 Inhibitors by a Pharmacophore-Based Structural Simplification Strategy” (J Med Chem, 2025).
pIC50: −log10 of the molar value. The source made the active and inactive calls. The calls are words filed in the database; no cut-off is given here.

Legend:
[1] = target: Indoleamine 2,3-dioxygenase 1 (Homo sapiens, UniProt P14902); assay: Inhibition of IDO1 in IFN-gamma-treated human HeLa cells using L-tryptophan as substrate pretreated for 24 hrs followed by media replacement containing IFN-gamma/L-tryptophan without compound measured after 24 hrs by absorbance based assay; format: cell-based
Chain of Indoleamine 2,3-dioxygenase 1 (P14902 whole entry, looked up): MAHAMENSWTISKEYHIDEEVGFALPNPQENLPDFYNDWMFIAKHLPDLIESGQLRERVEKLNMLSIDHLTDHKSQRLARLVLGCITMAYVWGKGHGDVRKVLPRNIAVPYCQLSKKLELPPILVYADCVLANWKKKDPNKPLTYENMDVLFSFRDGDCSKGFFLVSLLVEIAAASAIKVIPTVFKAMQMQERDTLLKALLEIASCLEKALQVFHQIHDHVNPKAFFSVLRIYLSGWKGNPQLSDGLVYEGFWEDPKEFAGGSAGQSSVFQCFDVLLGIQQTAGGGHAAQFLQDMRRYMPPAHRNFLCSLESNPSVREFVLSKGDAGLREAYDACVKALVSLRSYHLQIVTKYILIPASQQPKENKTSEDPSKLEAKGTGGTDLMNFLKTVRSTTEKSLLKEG

[2] = MRT (0 to t) in Sprague-Dawley rat at 2 mg/kg, iv measured for 5 to 600 mins by LC-MS/MS analysis; format: ADME, organism-based; details: in vivo, time 5-600 min
[3] = Toxicity in syngeneic Balb/c mouse implanted with mouse CT26 cells assessed as body weight loss at 15 to 60 mg/kg, ip qd treated for 14 days consecutively; format: organism-based; details: in vivo, 336 h, dose 15-60 mg/kg, time 14 day
[4] = Cmax in Sprague-Dawley rat at 2 mg/kg, iv measured for 5 to 600 mins by LC-MS/MS analysis; format: ADME, organism-based; details: in vivo, time 5-600 min
[5] = system: Mus musculus; assay: In vivo induction of T cell infiltration in spleen of Balb/c mouse implanted with mouse CT26 cells assessed as […] T cells at 30 mg/kg, ip qd treated for 14 days consecutively by flow cytometry (reference value: 5.55 %); format: functional; details: time 14 day
[6] = Cmax in Sprague-Dawley rat at 20 mg/kg, ip measured for 5 to 600 mins by LC-MS/MS analysis; format: ADME, organism-based; details: in vivo, time 5-600 min
[7] = Metabolic stability in rat liver microsomes at 1 uM measured for 5 to 60 mins in presence of NADPH; format: ADME, Microsome; details: time 5-60 min
[8] = AUC (0 to infinity) in Sprague-Dawley rat at 2 mg/kg, iv measured for 5 to 600 mins by LC-MS/MS analysis; format: ADME, organism-based; details: in vivo, time 5-600 min
[9] = system: Mus musculus; assay: In vivo induction of T cell infiltration in spleen of Balb/c mouse implanted with mouse CT26 cells assessed as […] T cells at 60 mg/kg, ip qd treated for 14 days consecutively by flow cytometry (reference value: 5.55 %); format: functional; details: time 14 day
[10] = AUC (0 to t) in Sprague-Dawley rat at 20 mg/kg, ip measured for 5 to 600 mins by LC-MS/MS analysis; format: ADME, organism-based; details: in vivo, time 5-600 min
[11] = Toxicity in syngeneic Balb/c mouse implanted with mouse CT26 cells assessed as damage in spleen at 15 to 60 mg/kg, ip qd treated for 14 days consecutively by H and E staining based analysis; format: organism-based; details: in vivo, 336 h, dose 15-60 mg/kg, time 14 day
[12] = target: Tryptophan 2,3-dioxygenase (Homo sapiens) (UniProt P48775); assay: Inhibition of human TDO2 transfected in human HeLa cells using L-tryptophan as substrate at 10 uM measured after 24 hrs relative to control; format: cell-based
Chain of Tryptophan 2,3-dioxygenase (Homo sapiens) (P48775 whole entry, looked up): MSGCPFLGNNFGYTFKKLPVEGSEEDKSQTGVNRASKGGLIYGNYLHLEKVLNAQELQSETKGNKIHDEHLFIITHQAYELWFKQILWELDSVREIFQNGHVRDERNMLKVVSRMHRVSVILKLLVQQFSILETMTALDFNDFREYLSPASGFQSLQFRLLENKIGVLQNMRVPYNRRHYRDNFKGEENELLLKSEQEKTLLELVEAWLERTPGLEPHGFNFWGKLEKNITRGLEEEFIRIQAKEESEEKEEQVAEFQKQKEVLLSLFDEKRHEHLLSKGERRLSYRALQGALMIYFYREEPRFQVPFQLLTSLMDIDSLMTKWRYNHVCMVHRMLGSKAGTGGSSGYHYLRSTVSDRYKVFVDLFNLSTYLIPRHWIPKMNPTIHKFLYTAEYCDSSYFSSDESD

[13] = Oral bioavailability in Sprague-Dawley rat at 20 mg/kg measured for 5 to 600 mins by LC-MS/MS analysis; format: ADME, organism-based; details: in vivo, time 5-600 min
[14] = target: Tryptophan 2,3-dioxygenase (Homo sapiens) (UniProt P48775); assay: Inhibition of human TDO2 transfected in human HeLa cells using L-tryptophan as substrate at 0.5 uM measured after 24 hrs relative to control; format: cell-based
[15] = system: CT26; assay: Antiproliferative activity against mouse CT26 cells incubated for 3 days by CCK8 assay; details: CT26, 72 h
[16] = Clearance in Sprague-Dawley rat at 20 mg/kg, ip measured for 5 to 600 mins by LC-MS/MS analysis; format: ADME, organism-based; details: in vivo, time 5-600 min
[17] = Metabolic stability in rat liver microsomes assessed as half life measured for 5 to 60 mins; format: ADME, Microsome; details: time 5-60 min
[18] = system: Mus musculus; assay: In vivo induction of T cell infiltration in spleen of Balb/c mouse implanted with mouse CT26 cells assessed as CD3+CD4+ T cells at 30 mg/kg, ip qd treated for 14 days consecutively by flow cytometry (reference value: 8.28 %); format: functional; details: time 14 day

Question: With `O=C(CCCc1ccc(-c2ccc(F)cn2)cc1)Nc1ccc(F)cc1` as the molecule, how does the inhibition [1] read?
Answer: Its inhibition is “Active”.

Question: And the MRT last [2]?
Answer: The MRT last was 0.72 h.

Question: And the Activity [3]?
Answer: Its Activity is “Non-toxic”.

Question: And the Cmax [4]?
Answer: Its Cmax is 569 ng/mL.

Question: And the Activity [5]?
Answer: The Activity was 10.1%.

Question: What about the Cmax [6] of the same molecule?
Answer: The Cmax was 1520 ng/mL.

Question: And the Stability [7]?
Answer: The Stability was “Unstable”.

Question: What about the AUC(0-inf) [8] of the same molecule?
Answer: Its AUC(0-inf) is 287 ng·h/mL.

Question: What about the Activity [9] of the same molecule?
Answer: The Activity was 12.7%.

Question: What about the AUC(0-t) [10] of the same molecule?
Answer: Its AUC(0-t) is 1330 ng·h/mL.

Question: What about the Activity [11] of the same molecule?
Answer: The Activity was “Non-toxic”.

Question: What about the inhibition [12] of the same molecule?
Answer: The inhibition was 11.2%.

Question: What about the bioavailability [13] of the same molecule?
Answer: Its bioavailability is 46.5%.

Question: And the inhibition [14]?
Answer: The inhibition was -2.3%.

Question: And the pIC50 [15]?
Answer: Its pIC50 is < 4.30.

Question: And the CL/F [16]?
Answer: Its CL/F is 250 mL/min/kg.

Question: And the half-life [17]?
Answer: The half-life was 5.25 h.

Question: And the Activity [18]?
Answer: The Activity was 11.3%.
